# What was measured:
# [1] = cited from earlier work
# [2] = test system: patients; conditions: human, in vivo; cited from earlier work
# [3] = test system: humans; conditions: low doses of 0.4 g/m^2/day; cited from earlier work
# [4] = test system: rat-tumor model; conditions: DFMO infusion; cited from earlier work
# [5] = test system: prostoglandin E2 (PGE2) levels in flat mucosa; conditions: 300 mg/day, one month; cited from earlier work
# [6] = test system: COX; conditions: cited from earlier work
# [7] = test system: HCT116 colorectal cancer cells; assay: HCT116 24 h IC50 and cell viability; assay type: cell-based, human
# [8] = test system: ODC1 +263 T promoter/intron 1 luciferase plasmid; assay: ODC1 promoter/intron 1 luciferase reporter transfection in HCT116 cells; assay type: cell-based, human; conditions: 2 μM NSC176327, 24 h, normalized to time-matched DMSO
# Description: (§1) HCT116 cells were transfected in 24-well plates. Cells were seeded at 0.1×10^6 cells/well 24 h prior transfection. Each well was transfected with 0.25 μg of each plasmid and 0.025 μg of Renilla-TK plasmid using 2.5 μL Lipofectamine 2000 reagent (Invitrogen) according to the manufacturer's instructions. The Renilla-TK plasmid was purchased from Promega and used as a transfection efficiency control in all promoter-reporter transfection experiments. For the overexpression experiments, ODC1 pGL3-Basic or Enhancer plasmids were co-transfected with the corresponding plasmid: pcDNA 3.0 empty vector, pcDNA3-c-MYC expression vector (Ricci et al., 2004) (Addgene plasmid 16011), full-length pN3-Sp1FL (Sapetschnig et al., 2004) (Addgene plasmid 24543), pN3-empty control (Addgene plasmid 24544), N-terminal mutate pPac-Sp1 (Courey and Tjian, 1988) (Addgene plasmid 12095) and pPac0 empty vector (Courey and Tjian, 1988) (Addgene plasmid 12094). After 5 h of transfection, the medium was replaced with fresh normal medium in the absence of antibiotics. […] Dual luciferase activities were measured using a Turner Designs TD-20/20 luminometer, as described by the manufacturer, and presented as relative luciferase units. Experiments were performed in triplicate, repeated at least twice, and analyzed for statistical significance (P<0.05) using two-sample t-tests (Microsoft Excel). […]
# [9] = test system: ODC1 +263 G promoter/intron 1 luciferase plasmid; assay: as above; assay type: cell-based, human; conditions: 2 μM NSC176327, 24 h, normalized to time-matched DMSO
# Description: as §1
smiles,measurement,setting,value
"CC1=C(CC(=O)O)c2cc(F)ccc2/C1=C\c1ccc([S+](C)[O-])cc1 (centres unmarked) [sulindac, (Z)-5-fluoro-2-methyl-1-((4 (methylsulfinyl)phenyl)methylene) 1H-indene-3-acetic acid]",fraction of the drug absorbed,[1]; oral administration,about 90%
same,time to peak plasma levels,"[1]; oral, fasting patients",about 2 h
same,patients with mild gastrointestinal effects,[2],~20%
same,patients with skin rash and pruritus,[2],5%
"NCCCC(N)(C(=O)O)C(F)F (racemic) [DFMO, 2-(difluoromethyl)-dl-ornithine]",toxicity,[3],relatively non-toxic
same,decrease in tumor putrescine levels,[4],90%
CC(C)Cc1ccc(C(C)C(=O)O)cc1 (centres unmarked) [ibuprofen],PGE2 levels in flat mucosa,[5],significant decrease
CC1=C(CC(=O)O)c2cc(F)ccc2/C1=C\c1ccc(S(C)(=O)=O)cc1 [Sulindac sulfone],COX-inhibitory activity,[6],lacks COX-inhibitory activity
COc1ccc2c(c1)c1c(C)c3cnccc3c(C)c1n2CCCN [NSC176327],IC50,[7],2000 nM
same,reduction of ODC1-luciferase reporter expression,[8],47.5%
same,reduction of ODC1-luciferase reporter expression,[9],43.6%

# — patent US10655183B2, “Carcinoma diagnosis and treatment based on ODC1 genotype” (THE ARIZONA BOARD OF REGENTS ON BEHALF OF THE UNIVERSITY OF …, priority 2014, dated 2020)
